Experimental data published in US12209085B2, “RET inhibitors, pharmaceutical compositions and uses thereof” (SUNSHINE LAKE PHARMA CO., LTD., priority 2018, dated 2025).

Key:
Type in all cases: biochemical
Conditions in all cases: HTRF method
Ret wt = Ret wt (Homo sapiens (Human), UniProt P07949); assay: HTRF kinase inhibition assay, Ret wt
Text: (§1) • 1. […] 1) • 18) Echo (Labcyte, 550) • 3.
(§2) [formula] • Ratiopositive control: average of CEP-32496 readings in all positive control wells • Rationegative control: average of DMSO readings in all negative control wells • Wherein, the chemical name of CEP-32496 is: N-[3-[(6,7-dimethoxy-4-quinazolinyl)oxy]phenyl]-N′-[5-(2,2,2-trifluoro-1,1-dimethylethyl)-3-isoxazolyl]urea. • 4.3 Calculation of the IC50 and Drawing of the inhibition curve of the compound: • The IC50 (half inhibitory concentration) of the compound was obtained using the following non-linear fitting formula: Data analysis was performed using Graphpad 6.0 software. Y=Bottom+(Top−Bottom)/(1+10^((Log IC50−X)*Hill Slope)) • X: compound concentration log value Y: inhibition, % • 5.

CCDC6-RET = CCDC6-RET (Homo sapiens (Human), UniProt P07949+Q16204); assay: HTRF kinase inhibition assay, CCDC6-RET
Sequence of CCDC6-RET (P07949 other isoform, or with tags, fused parts or gaps): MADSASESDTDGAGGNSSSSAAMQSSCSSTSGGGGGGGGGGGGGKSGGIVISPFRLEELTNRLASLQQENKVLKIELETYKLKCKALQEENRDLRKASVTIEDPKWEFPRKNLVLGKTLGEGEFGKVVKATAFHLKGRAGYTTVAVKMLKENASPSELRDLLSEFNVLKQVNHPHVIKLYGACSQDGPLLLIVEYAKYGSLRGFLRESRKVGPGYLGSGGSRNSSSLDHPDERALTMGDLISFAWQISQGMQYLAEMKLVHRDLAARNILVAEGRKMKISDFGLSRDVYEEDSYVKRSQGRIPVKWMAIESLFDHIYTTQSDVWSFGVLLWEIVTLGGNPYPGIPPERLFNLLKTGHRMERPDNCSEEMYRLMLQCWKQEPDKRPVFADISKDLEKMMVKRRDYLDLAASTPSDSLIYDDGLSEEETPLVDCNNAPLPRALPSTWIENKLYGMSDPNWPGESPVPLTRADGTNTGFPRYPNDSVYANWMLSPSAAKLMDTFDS
Text: as §1, §2

Ret M918T = Ret M918T (Homo sapiens (Human), UniProt P07949, M918T); assay: HTRF kinase inhibition assay, Ret M918T
Sequence of Ret M918T (P07949 29-1114 M918T): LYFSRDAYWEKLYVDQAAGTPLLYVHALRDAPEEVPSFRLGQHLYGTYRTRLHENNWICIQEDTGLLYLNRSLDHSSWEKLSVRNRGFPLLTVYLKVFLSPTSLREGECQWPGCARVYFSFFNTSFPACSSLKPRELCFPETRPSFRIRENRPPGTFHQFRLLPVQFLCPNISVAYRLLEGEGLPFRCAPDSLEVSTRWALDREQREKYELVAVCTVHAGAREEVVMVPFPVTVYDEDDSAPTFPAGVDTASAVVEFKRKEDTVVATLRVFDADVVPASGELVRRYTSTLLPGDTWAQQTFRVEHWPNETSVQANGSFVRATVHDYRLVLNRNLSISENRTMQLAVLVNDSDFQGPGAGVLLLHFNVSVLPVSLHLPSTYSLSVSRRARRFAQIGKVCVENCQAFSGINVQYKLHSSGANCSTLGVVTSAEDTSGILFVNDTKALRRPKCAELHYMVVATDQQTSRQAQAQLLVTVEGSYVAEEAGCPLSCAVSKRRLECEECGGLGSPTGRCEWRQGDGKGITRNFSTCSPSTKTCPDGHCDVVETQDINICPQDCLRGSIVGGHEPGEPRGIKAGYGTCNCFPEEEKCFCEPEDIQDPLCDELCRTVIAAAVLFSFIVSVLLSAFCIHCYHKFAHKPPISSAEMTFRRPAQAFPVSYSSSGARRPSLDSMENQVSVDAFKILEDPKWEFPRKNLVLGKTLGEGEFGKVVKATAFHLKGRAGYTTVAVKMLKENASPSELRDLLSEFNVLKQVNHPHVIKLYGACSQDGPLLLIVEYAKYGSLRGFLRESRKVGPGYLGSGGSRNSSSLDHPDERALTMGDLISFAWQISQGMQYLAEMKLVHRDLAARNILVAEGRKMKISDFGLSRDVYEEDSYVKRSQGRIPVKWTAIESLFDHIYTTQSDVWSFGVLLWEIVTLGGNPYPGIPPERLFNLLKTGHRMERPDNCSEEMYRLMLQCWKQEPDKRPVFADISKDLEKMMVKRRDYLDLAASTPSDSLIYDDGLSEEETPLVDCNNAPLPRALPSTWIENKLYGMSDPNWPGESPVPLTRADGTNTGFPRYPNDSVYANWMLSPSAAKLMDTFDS
Text: as §1, §2

Ret V804L = Ret V804L (Homo sapiens (Human), UniProt P07949, V804L); assay: HTRF kinase inhibition assay, Ret V804L
Sequence of Ret V804L (P07949 29-1114 V804L): as the sequence (P07949 29-1114 M918T) above, with V776L, T890M counted along it
Text: as §1, §2

Ret V804M = Ret V804M (Homo sapiens (Human), UniProt P07949, V804M); assay: HTRF kinase inhibition assay, Ret V804M
Sequence of Ret V804M (P07949 29-1114 V804M): as the sequence (P07949 29-1114 M918T) above, with V776M, T890M counted along it
Text: as §1, §2

Sequence of Ret wt (P07949 29-1114): as the sequence (P07949 29-1114 M918T) above, with T890M counted along it

What does the source list for `Cn1cc(-c2cc(-c3ccc(N4CCN(C(=O)C#Cc5ccccc5)CC4)nc3)c3c(C#N)cnn3c2)cn1` [Example 1, 3-cyano-6-(1-methyl-1H-pyrazol-4-yl)-4-(6-(4-(3-phenylpropioloyl)piperazin-1-yl)pyridine-3-yl)pyrazolo[1,5-a]pyridine]?
IC50 (Ret wt): 0.61 nM; IC50 (CCDC6-RET): 0.87 nM; IC50 (Ret M918T): 0.97 nM; IC50 (Ret V804L): 0.95 nM; IC50 (Ret V804M): 5.53 nM

Which IC50 (Ret wt) does the source give for `C#Cc1ccc(C(=O)N2CCN(c3ccc(-c4cc(-c5cnn(C)c5)cn5ncc(C#N)c45)cn3)CC2)cc1` [Example 3, 3-cyano-4-(6-(4-(4-ethynylbenzoyl)piperazin-1-yl)pyridin-3-yl)-6-(1-methyl-1H-pyrazol-4-yl)pyrazolo[1,5-a]pyridine] here?
Its IC50 is 0.27 nM.

And the IC50 (CCDC6-RET)?
The IC50 was 0.8 nM.

And the IC50 (Ret M918T)?
The IC50 was 0.7 nM.

What about the IC50 (Ret V804L) of the same compound?
The IC50 was 0.3 nM.

What about the IC50 (Ret V804M) of the same compound?
The IC50 was 16.6 nM.

Which IC50 (Ret wt) does the source give for `C#Cc1cccc(C(=O)NC2(C)CCN(c3ccc(-c4cc(-c5cnn(C)c5)cn5ncc(C#N)c45)cn3)CC2)c1` [Example 4, N-(1-(5-(3-cyano-6-(1-methyl-1H-pyrazol-4-yl)pyrazolo[1,5-a]pyridin-4-yl)pyridin-2-yl)-4-methylpiperidin-4-yl)-3-ethynylbenzamide] here?
The IC50 was 0.27 nM.

What about the IC50 (CCDC6-RET) of the same compound?
The IC50 was 0.6 nM.

What about the IC50 (Ret M918T) of the same compound?
The IC50 was 2.8 nM.

And the IC50 (Ret V804L)?
Its IC50 is 0.2 nM.

And the IC50 (Ret V804M)?
The IC50 was 2.3 nM.

How did the IC50 (Ret wt) turn out when `COc1ccc(C#CCN2C3CC2CN(c2ccc(-c4cc(-c5cnn(C)c5)cn5ncc(C#N)c45)cn2)C3)cn1` [Example 194, 4-(6-(6-(3-(6-methoxypyridin-3-yl)prop-2-yn-1-yl)-3,6-diazabicyclo[3.1.1]heptane-3-yl)pyridin-3-yl)-6-(1-methyl-1H-pyrazol-4-yl)pyrazolo[1,5-a]pyridin-3-carbonitrile] was run?
The IC50 was 0.68 nM.

What about the IC50 (CCDC6-RET) of the same compound?
The IC50 was 0.26 nM.

And the IC50 (Ret M918T)?
Its IC50 is 0.62 nM.

What about the IC50 (Ret V804L) of the same compound?
Its IC50 is 0.23 nM.

And the IC50 (Ret V804M)?
The IC50 was 7.07 nM.

`COc1cncc(C#CCN2C3CC2CN(c2ccc(-c4cc(-c5cnn(C)c5)cn5ncc(C#N)c45)cn2)C3)c1` [Example 215, 4-(6-(6-(3-(5-methoxypyridin-3-yl)prop-2-yn-1-yl)-3,6-diazabicyclo[3.1.1]heptane-3-yl)pyridin-3-yl)-6-(1-methyl-1H-pyrazol-4-yl)pyrazolo[1,5-a]pyridin-3-carbonitrile] was tested. Which IC50 (Ret wt) did it give?
The IC50 was 0.16 nM.

And the IC50 (CCDC6-RET)?
Its IC50 is 0.16 nM.

And the IC50 (Ret M918T)?
Its IC50 is 0.183 nM.

And the IC50 (Ret V804L)?
The IC50 was 0.06 nM.

And the IC50 (Ret V804M)?
The IC50 was 0.42 nM.

Which IC50 (Ret wt) does the source give for `Cn1cc(-c2cc(-c3ccc(N4CCN(CC#Cc5ccncc5)CC4)nc3)c3c(C#N)cnn3c2)cn1` [Example 263, 6-(1-methyl-1H-pyrazol-4-yl)-4-(6-(4-(3-(pyridin-4-yl)prop-2-yn-1-yl)piperazin-1-yl)pyridine-3-yl)pyrazolo[1,5-a]pyridine-3-carbonitrile] here?
The IC50 was 2.5 nM.

And the IC50 (Ret V804M)?
The IC50 was 31.4 nM.

Which results are given for `Cn1cc(-c2cc(-c3ccc(N4CCN(CC#Cc5cncc(C(F)(F)F)c5)CC4)nc3)c3c(C#N)cnn3c2)cn1` [Example 265]?
IC50 (Ret wt): 3.65 nM; IC50 (Ret V804M): 69.6 nM

What does the source list for `COc1cncc(C#CC(=O)N2C3CC2CN(c2ccc(-c4cc(-c5cnn(C)c5)cn5ncc(C#N)c45)cn2)C3)c1` [Example 270, 4-(6-(6-(3-(5-methoxypyridin-3-yl)propioloyl)-3,6-diazabicyclo[3.1.1]heptan-3-yl)pyridin-3-yl)-6-(1-methyl-1H-pyrazol-4-yl)pyrazolo[1,5-a]pyridine-3-carbonitrile]?
IC50 (Ret wt): 1.1 nM; IC50 (Ret V804M): 4.9 nM

Which results are given for `Cn1cc(-c2cc(-c3ccc(N4CC5CC(C4)N5C(=O)C#Cc4ccccc4)nc3)c3c(C#N)cnn3c2)cn1` [Example 271, 6-(1-methyl-1H-pyrazol-4-yl)-4-(6-(6-(3-phenylpropioloyl)-3,6-diazabicyclo[3.1.1]heptane-3-yl)pyridin-3-yl)pyrazolo[1,5-a]pyridine-3-carbonitrile]?
IC50 (Ret wt): 5.82 nM; IC50 (Ret V804M): 74.1 nM

Which results are given for `COc1cncc(C#CC(=O)N2CCN(c3ccc(-c4cc(-c5cnn(C)c5)cn5ncc(C#N)c45)cn3)CC2)c1` [Example 272, 4-(6-(4-(3-(5-methoxypyridin-3-yl)propioloyl)piperazin-1-yl)pyridin-3-yl)-6-(1-methyl-1H-pyrazol-4-yl)pyrazolo[1,5-a]pyridine-3-carbonitrile]?
IC50 (Ret wt): 0.72 nM; IC50 (Ret V804M): 5.26 nM

How did the IC50 (Ret wt) turn out when `Cn1cc(-c2cc(-c3ccc(N4CC5CC(C4)N5C(=O)C#Cc4cccnc4)nc3)c3c(C#N)cnn3c2)cn1` [Example 273, 6-(1-methyl-1H-pyrazol-4-yl)-4-(6-(6-(3-(pyridin-3-yl)propioloyl]-3,6-diazabicyclo[3.1.1]heptan-3-yl]-3-pyridin]pyrazolo[1,5-a]pyridine-3-carbonitrile] was run?
The IC50 was 4.28 nM.

And the IC50 (Ret V804M)?
Its IC50 is 82.6 nM.

Which IC50 (Ret wt) does the source give for `C#CC#CCN1CCN(c2ccc(-c3cc(-c4cnn(C)c4)cn4ncc(C#N)c34)cn2)CC1` [Example 275, 6-(1-methyl-1H-pyrazol-4-yl)-4-(6-(4-(penta-2,4-diyn-1-yl)piperazin-1-yl)pyridine-3-yl)pyrazolo[1,5-a]pyridine-3-carbonitrile] here?
The IC50 was 0.58 nM.

And the IC50 (Ret V804M)?
Its IC50 is 8.22 nM.

`C#CCNC1(C)CCN(c2ccc(-c3cc(-c4cnn(C)c4)cn4ncc(C#N)c34)cn2)CC1` [Example 277, 6-(1-methyl-1H-pyrazol-4-yl)-4-(6-(4-methyl-4-(prop-2-yn-1-ylamino)piperidin-1-yl)pyridin-3-yl)pyrazolo[1,5-a]pyridine-3-carbonitrile] was tested. Which IC50 (Ret wt) did it give?
The IC50 was 1.38 nM.

What about the IC50 (Ret V804M) of the same compound?
The IC50 was 10.3 nM.

For `C#Cc1ccc(OC2CN(c3ccc(-c4cc(-c5cnn(C6CC6)c5)cn5ncc(C#N)c45)cn3)C2)cn1` [Example 280, 6-(1-cyclopropyl-1H-pyrazol-4-yl)-4-(6-(3-((6-ethynylpyridin-3-yl)oxy)azetidin-1-yl)pyridin-3-yl)pyrazolo[1,5-a]pyridine-3-carbonitrile], which IC50 (Ret wt) is on record?
Its IC50 is 0.43 nM.

And the IC50 (Ret V804M)?
The IC50 was 0.92 nM.

How did the IC50 (Ret wt) turn out when `C#Cc1ccc(OC2CN(c3ccc(-c4cc(-c5c(C)noc5C)cn5ncc(C#N)c45)cn3)C2)cn1` [Example 282, 6-(3,5-dimethylisoxazol-4-yl)-4-(6-(3-((6-ethynylpyridin-3-yl)oxy)azetidin-1-yl)pyridin-3-yl)pyrazolo[1,5-a]pyridine-3-carbonitrile] was run?
The IC50 was 2.9 nM.

And the IC50 (Ret V804M)?
The IC50 was 60.8 nM.

How did the IC50 (Ret wt) turn out when `C#Cc1ccc(OC2CN(c3ccc(-c4cc(-c5cnn(C(F)F)c5)cn5ncc(C#N)c45)cn3)C2)cn1` [Example 283, 6-(1-(difluoromethyl)-1H-pyrazol-4-yl)-4-(6-(3-((6-ethynylpyridin-3-yl)oxy)azetidin-1-yl)pyridin-3-yl)pyrazolo[1,5-a]pyridine-3-carbonitrile] was run?
The IC50 was 0.39 nM.

And the IC50 (Ret V804M)?
The IC50 was 2.29 nM.

`C#Cc1ccc(O[C@H]2CCN(c3ccc(-c4cc(-c5cnn(C(F)F)c5)cn5ncc(C#N)c45)cn3)C2)cn1` [Example 284, (S)-6-(1-(difluoromethyl)-1H-pyrazol-4-yl)-4-(6-(3-((6-ethynylpyridin-3-yl)oxy)pyrrolidin-1-yl)pyridin-3-yl) pyrazolo[1,5-a]pyridine-3-carbonitrile] was tested. Which IC50 (Ret wt) did it give?
The IC50 was 1.63 nM.

What about the IC50 (Ret V804M) of the same compound?
Its IC50 is 23 nM.

What does the source list for `C#Cc1ccc(OC2CN(c3ccc(-c4cc(-c5cnn(C(F)F)c5)cn5ncc(C#N)c45)cn3)C2)cc1` [Example 285, 6-(1-(difluoromethyl)-1H-pyrazol-4-yl)-4-(6-(3-(4-ethynylphenoxy)azetidin-1-yl)pyridin-3-yl)pyrazolo[1,5-a]pyridine-3-carbonitrile]?
IC50 (Ret wt): 0.56 nM; IC50 (Ret V804M): 0.71 nM

With `C#Cc1ccc(O[C@@H]2CCN(c3ccc(-c4cc(-c5cnn(C(F)F)c5)cn5ncc(C#N)c45)cn3)C2)cc1` [Example 286, (R)-6-(1-(difluoromethyl)-1H-pyrazol-4-yl)-4-(6-(3-(4-ethynylphenoxy)pyrrolidin-1-yl)pyridin-3-yl)pyrazolo[1,5-a]pyridine-3-carbonitrile] as the compound, how does the IC50 (Ret wt) read?
Its IC50 is 0.85 nM.

And the IC50 (Ret V804M)?
The IC50 was 0.85 nM.

With `C#Cc1ccc(OC2CN(c3ccc(-c4cc(-c5cnn(C)c5)cn5ncc(C#N)c45)cn3)C2)cn1` [Example 287, 4-(6-(3-((6-ethynylpyridin-3-yl)oxy)azetidin-1-yl)pyridin-3-yl)-6-(1-methyl-1H-pyrazol-4-yl) pyrazolo[1,5-a]pyridine-3-carbonitrile] as the compound, how does the IC50 (Ret wt) read?
The IC50 was 0.13 nM.

What about the IC50 (Ret V804M) of the same compound?
The IC50 was 0.2 nM.
